US20230382894A1, “CCR4 ANTAGONISTS” (CHEMOCENTRYX, INC., priority 2022, published 2023)

Columns and labels:
CCR4 [1] = biological target: T1, CCR4 (Homo sapiens, UniProt P51679); experiment: CEM cell chemotaxis (migration) assay to CCL22 (MDC) in HBSS buffer with 0.1% BSA; format: cell-based; details: CEM cells in HBSS with 0.1% BSA; recombinant human CCL22 0.1 nM; 37° C. 60 minutes
T1 construct: CEM Cells Endogenous Express CCR4; endogenous in cells; host or cells: CEM cells
T1 sequence (P51679 1-360): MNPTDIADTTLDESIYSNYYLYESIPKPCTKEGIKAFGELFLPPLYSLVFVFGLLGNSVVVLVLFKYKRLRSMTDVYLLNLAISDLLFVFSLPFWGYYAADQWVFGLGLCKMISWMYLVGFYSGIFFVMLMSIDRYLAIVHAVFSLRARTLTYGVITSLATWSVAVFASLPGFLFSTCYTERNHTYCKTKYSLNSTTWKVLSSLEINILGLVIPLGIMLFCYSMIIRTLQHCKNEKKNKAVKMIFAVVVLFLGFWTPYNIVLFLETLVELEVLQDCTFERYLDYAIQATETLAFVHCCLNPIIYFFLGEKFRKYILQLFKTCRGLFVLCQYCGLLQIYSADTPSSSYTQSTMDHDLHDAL
Text: CEM Cells Endogenous Express CCR4
A chemotaxis assay can be used to determine the efficacy of potential receptor antagonists at blocking the migration mediated through chemokine receptors, such as CCR4. This assay is routinely performed using the ChemoTX® microchamber system with a 5 μm pore-sized polycarbonate membrane.
HBSS: CEM Cells are collected by centrifugation at 400×g at room temperature, then suspended at 5 million/ml in Hanks' Balanced Salt Solution (HBSS) buffer with 0.1% BSA. The compound being tested is serially diluted from a maximum final concentration of 10 μM (or an equivalent volume of its solvent (DMSO)) and is then added to the cell/buffer mixture. Separately, recombinant human CCL22 (MDC) at its EC50 concentration (0.1 nM) is placed in the lower wells of the ChemoTX® plate. The 5-μm (pore size) polycarbonate membrane was placed onto the plate, and 20 μL of the cell/compound mixture is transferred onto each well of the membrane. The plates are incubated at 37° C. for 60 minutes, after which the polycarbonate membranes are removed and 5 μl of the DNA-intercalating dye CyQUANT (Invitrogen, Carlsbad, CA) is added to the lower wells. The amount of fluorescence, corresponding to the number of migrated cells, is measured using a Spectrafluor Plus plate reader (TECAN, San Jose, CA).

CCR4 [2] = biological target: T1, CCR4; experiment: CEM cell chemotaxis (migration) assay to CCL22 (MDC) in 100% Fetal Bovine Serum (FBS); format: cell-based; details: CEM cells in 100% FBS with 1% HEPEs; recombinant human CCL22 0.1 nM; 37° C. 60 minutes
Outline: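 Endogenously CCR4-expressing CEM cells in 100% FBS with 1% HEPES were preincubated with serially diluted compound (top final 10 μM) and allowed to migrate through 5 μm polycarbonate membranes toward 0.1 nM human CCL22 (EC50) for 60 min at 37 °C. Migrated cells were quantified by CyQUANT fluorescence.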

Row | Structure (SMILES) | IC50 (CCR4 [1]) [nM] | IC50 (CCR4 [2]) [nM]
1 | C[C@@H](Nc1nc(N2CCC(NC(=O)C3CCN(C)C3)CC2)ncc1Cl)c1ccc(Cl)cc1Cl (stereo partly drawn) [Example 1.009] | < 100 | < 100
2 | C[C@@H](Nc1nc(N2CCN(C(=O)CCN(C)C)CC2)ncc1Cl)c1ccc(Cl)cc1Cl [Example 1.010] | < 100 | < 100
3 | C[C@@H](Nc1nc(N2CCN(C(=O)[C@H]3CCCN3)[C@@H](C)C2)ncc1Cl)c1ccc(Cl)cc1Cl [Example 1.011] | < 100 | < 100
4 | C[C@@H](Nc1nc(N2CC[C@H](NC(=O)[C@H]3CCCN3)[C@@H](O)C2)ncc1Cl)c1ccc(Cl)cc1Cl [Example 1.012] | < 100 | < 100
5 | C[C@@H](Nc1nc(N2CC[C@@H](NC(=O)[C@H]3CCCN3)[C@H](O)C2)ncc1Cl)c1ccc(Cl)cc1Cl [Example 1.013] | < 100 | < 100
6 | C[C@@H](Nc1nc(N2CC[C@H](NC(=O)[C@H]3CCCN3)[C@H](O)C2)ncc1Cl)c1ccc(Cl)cc1Cl [Example 1.014] | < 100 | < 100
7 | C[C@@H](Nc1nc(N2CC[C@@H](NC(=O)[C@H]3CCCN3)C2)ncc1Cl)c1ccc(Cl)cc1Cl [Example 1.015] | < 100 | < 100
8 | C[C@@H](Nc1nc(N2CCN(S(=O)(=O)CCN(C)C)CC2)ncc1Cl)c1ccc(Cl)cc1Cl [Example 1.016] | < 100 | 100 to 1000
9 | C[C@@H]1CN(c2ncc(Cl)c(N[C@H](C)c3ccc(Cl)cc3Cl)n2)[C@@H](C)CN1C1CCCN(CCC(=O)O)C1 (stereo partly drawn) [Example 1.017] | < 100 | < 100
10 | C[C@@H]1CN(c2ncc(Cl)c(N[C@H](C)c3ccc(Cl)cc3Cl)n2)CCN1C(=O)c1c[nH]c(=O)n(C)c1=O [Example 1.018] | > 1000 | > 1000
11 | C[C@@H]1CN(c2ncc(Cl)c(N[C@H](C)c3ccc(Cl)cc3Cl)n2)[C@@H](C)CN1C(=O)[C@H]1CCCN1CC(=O)O [Example 1.019] | 100 to 1000 | 100 to 1000
12 | C[C@@H](Nc1nc(C2=CCN(C(=O)CN(C)C)CC2)ncc1Cl)c1ccc(Cl)cc1Cl [Example 1.020] | < 100 | < 100
13 | C[C@@H](Nc1nc(N2CCC(C3CNC3)CC2)ncc1Cl)c1ccc(Cl)cc1Cl [Example 1.021] | < 100 | < 100
14 | C[C@@H](Nc1nc(N2CCN(C(=O)C3CCN(C)C3)CC2)ncc1Cl)c1ccc(Cl)cc1Cl (stereo partly drawn) [Example 1.022] | < 100 | < 100
15 | C[C@@H](Nc1nc(N2CCN(C(=O)[C@H]3C[C@H](O)CN3)CC2)ncc1Cl)c1ccc(Cl)cc1Cl [Example 1.023] | < 100 | < 100
16 | C[C@@H](Nc1nc(N2CCN(C(=O)[C@H]3CCCN3C)CC2)ncc1Cl)c1ccc(Cl)cc1Cl [Example 1.024] | < 100 | < 100
17 | C[C@@H](Nc1nc(N2CCC(C(=O)N(C)CCN(C)C)CC2)ncc1Cl)c1ccc(Cl)cc1Cl [Example 1.025] | < 100 | < 100
18 | C[C@@H](Nc1nc(N2CCC(C(=O)NCCN(C)C)CC2)ncc1Cl)c1ccc(Cl)cc1Cl [Example 1.026] | < 100 | < 100
19 | C[C@@H](Nc1nc(C2=CCN(C(=O)[C@H]3CCCN3)CC2)ncc1Cl)c1ccc(Cl)cc1Cl [Example 1.027] | < 100 | < 100
20 | C[C@@H](Nc1nc(N2CC[C@@H](NC(=O)[C@H]3CCCN3)[C@@H](O)C2)ncc1Cl)c1ccc(Cl)cc1Cl [Example 1.028] | < 100 | < 100
21 | C[C@@H](Nc1nc(N2CC[C@H](NC(=O)[C@H]3CCCN3)C2)ncc1Cl)c1ccc(Cl)cc1Cl [Example 1.029] | < 100 | < 100

Row | Structure (SMILES) | IC50 (CCR4 [1]) [nM] | IC50 (CCR4 [2]) [nM]
22 | C[C@@H](Nc1nc(N2CCN(C(=O)[C@H]3CCCN3)C(C)(C)C2)ncc1Cl)c1ccc(Cl)cc1Cl [Example 1.030] | > 1000 | 100 to 1000
23 | C[C@@H](Nc1nc(N2CC3CC2CN3C(=O)[C@H]2CCCN2)ncc1Cl)c1ccc(Cl)cc1Cl (stereo partly drawn) [Example 1.031] | 100 to 1000 | 100 to 1000
24 | C[C@@H](Nc1nc(N2CCN(C(=O)C[C@H]3CCCN3)CC2)ncc1Cl)c1ccc(Cl)cc1Cl [Example 1.032] | < 100 | < 100
25 | C[C@@H](Nc1nc(N2CCN(C(=O)[C@H]3CCN3)CC2)ncc1Cl)c1ccc(Cl)cc1Cl [Example 1.033] | < 100 | < 100
26 | C[C@@H]1CN(c2ncc(Cl)c(N[C@H](C)c3ccc(Cl)cc3Cl)n2)[C@@H](C)CN1C(=O)[C@H]1CCCN1 [Example 1.034] | < 100 | < 100
27 | C[C@@H](Nc1nc(N2CCC(C3CCCN(CCC(=O)O)C3)CC2)ncc1Cl)c1ccc(Cl)cc1Cl (stereo partly drawn) [Example 1.035] | < 100 | < 100
28 | C[C@@H]1CN(c2ncc(Cl)c(N[C@H](C)c3ccc(Cl)cc3Cl)n2)CCN1C(=O)N1CCNCC1 [Example 1.036] | > 1000 | > 1000
29 | C[C@@H](Nc1nc(N2CCN(C(=O)C3(C)CNC3)CC2)ncc1Cl)c1ccc(Cl)cc1Cl [Example 1.037] | 100 to 1000 | 100 to 1000
30 | C[C@@H]1CN(C(=O)[C@H]2CCCN2)CCN1c1ncc(Cl)c(N[C@H](C)c2ccc(Cl)cc2Cl)n1 [Example 1.038] | < 100 | < 100
31 | C[C@@H](Nc1nc(N2CCC(NC(=O)[C@H]3CCCN3)CC2)ncc1Cl)c1ccc(Cl)cc1Cl [Example 1.039] | < 100 | < 100
32 | C[C@@H](Nc1nc(N2CCN(C(=O)C(C)(C)N)CC2)ncc1Cl)c1ccc(Cl)cc1Cl [Example 1.040] | < 100 | < 100
33 | C[C@@H](Nc1nc(N2CCN(C(=O)CN(C)C)CC2)ncc1Cl)c1ccc(Cl)cc1Cl [Example 1.041] | < 100 | < 100
34 | C[C@@H]1CN(c2ncc(Cl)c(N[C@H](C)c3ccc(Cl)cc3Cl)n2)CCN1C(=O)[C@H]1CCCN1 [Example 1.042] | < 100 | < 100
35 | Cc1nc(N2CCN(C(=O)[C@H]3CCCN3)[C@H](CO)C2)nc(N[C@H](C)c2ccc(Cl)cc2Cl)c1Cl [Example 1.043] | < 100 | < 100
36 | C[C@@H](Nc1nc(N2CCN(C(=O)[C@H]3CCCCN3)CC2)ncc1Cl)c1ccc(Cl)cc1Cl [Example 1.044] | < 100 | < 100
37 | C[C@@H](Nc1nc(N2CCC(C3CCCNC3)CC2)ncc1Cl)c1ccc(Cl)cc1Cl (stereo partly drawn) [Example 1.045] | < 100 | < 100
38 | C[C@@H](Nc1nc(N2CCN(C(=O)[C@H]3CCCN3CCO)CC2)ncc1Cl)c1ccc(Cl)cc1Cl [Example 1.046] | < 100 | < 100
39 | C[C@@H](Nc1nc(N2CCC(C3CCCN(CCO)C3)CC2)ncc1Cl)c1ccc(Cl)cc1Cl (stereo partly drawn) [Example 1.047] | < 100 | < 100
40 | C[C@@H](Nc1nc(N2CCN(C(=O)[C@H]3CCCN3CCC(=O)O)CC2)ncc1Cl)c1ccc(Cl)cc1Cl [Example 1.048] | < 100 | < 100
41 | Cc1nc(N2CCN(C(=O)[C@H]3CCCN3)CC2)nc(N[C@H](C)c2ccc(Cl)cc2Cl)c1Cl [Example 1.049] | < 100 | < 100
42 | C[C@@H](Nc1nc(N2CCN(C(=O)[C@@H]3CCCN3C(=O)OC(C)(C)C)CC2)ncc1Cl)c1ccc(Cl)cc1Cl [Example 1.050] | 100 to 1000 | > 1000
